The target in series [1] is T1, murine SR-BI (Mus musculus, UniProt Q61009).
T1 construct: expressed in transfected cells; host or cells: ldlA[mSR-BI]; (CHO ldlA7 derivative lacking the LDL receptor)
T1 sequence (Q61009 1-509): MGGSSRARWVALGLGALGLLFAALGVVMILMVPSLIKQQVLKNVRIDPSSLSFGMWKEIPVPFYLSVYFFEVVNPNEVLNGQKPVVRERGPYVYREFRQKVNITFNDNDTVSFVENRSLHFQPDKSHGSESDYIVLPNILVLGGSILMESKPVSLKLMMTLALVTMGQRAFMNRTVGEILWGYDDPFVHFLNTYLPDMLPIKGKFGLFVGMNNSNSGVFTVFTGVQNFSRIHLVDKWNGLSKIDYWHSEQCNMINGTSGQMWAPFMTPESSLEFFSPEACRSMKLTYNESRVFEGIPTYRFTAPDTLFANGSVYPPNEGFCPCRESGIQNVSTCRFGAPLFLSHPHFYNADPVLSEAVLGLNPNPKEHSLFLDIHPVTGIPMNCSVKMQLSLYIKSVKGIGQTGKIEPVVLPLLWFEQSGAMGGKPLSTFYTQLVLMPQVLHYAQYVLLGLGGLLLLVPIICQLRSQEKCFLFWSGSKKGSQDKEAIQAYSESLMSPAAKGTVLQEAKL
Briefly: DiI-HDL uptake assay (primary assay). Type of series: cell-based. The text has this: The following cell lines were used in this study: • ldlA[mSR-BI] is a Chinese hamster ovary (CHO) cell line that overexpresses murine SR-BI, isoform 1 (NP_058021) and was obtained from the Assay Provider (Krieger Laboratory). This cell line was used for the primary assay and several secondary assays. […] This cell line was obtained from the Assay Provider. Assays DiI-HDL Uptake Assay (Primary Assay AID Nos. 488896, 493194, 540354 588392, 588553, 588548, 588754, 588828, 588833)
ldlA[mSR-BI]cells were plated into 384-well plates at 30 μl per well and incubated overnight. As a measurable surrogate for cholesterol uptake, human HDL particles were treated with the lipophilic fluorescent dye DiI and exposed to ldlA[mSR-BI]cells in lipoprotein-free media (Ham's F12/0.5% fatty acid-free Bovine Serum Albumin (BSA)/25 mM HEPES pH 7.4 plus 10 μg protein/ml DiI-HDL). Cells took up the DiI via SR-BI over 3 hours in the presence of compound. After significant uptake of the DiI, the cells became fluorescent. The level of fluorescence correlates with the amount of DiI uptake and can be measured with a standard plate reader (here a PerkinElmer EnVision plate reader was used). The uptake of lipid (represented by DiI) was inhibited by the positive control compound BLT-1 or with an excess of HDL untreated with DiI. Primary HTS data were analyzed in Genedata Screener Assay Analyzer, and were normalized against DMSO and the positive control (1 μM BLT-1). For the HTS, the average of two replicates was used to rank order activity and to choose compounds for retests. For dose studies, percent (%) activity was determined for each concentration and the concentration response curves (CRCs) were generated with Genedata Condeseo.
To identify novel inhibitors, SR-BI-mediated lipid uptake was measured in an engineered cell line that minimized potential uptake by other mechanisms, including via the LDL receptor (1). ldlA[mSR-BI]cells overexpress murine isoform 1 and selectively take up HDL lipid at similar levels as “has been reported for cultured mouse adrenal cells, perfused organs, and liver, adrenal gland and ovary in vivo” (1). This primary cell-based assay was used in a pilot screen that identified BLTs 1 through 5 (12). The assay was slightly modified from the original protocol of Nieland et al. to increase throughput and to ease automation procedures.

Series [2] has as its system ldlA[mSR-BI] cells. Briefly: Cell cytotoxicity assay (CellTiter-Glo). Type of series: cell-based, Chinese hamster. How it is done: It is possible that a compound will cause cells to decrease HDL-mediated DiI uptake due to nonspecific consequences of cellular toxicity, representing a second class of false positive hits. The cells were treated with compounds for 3 hours or 24 hours, and then cell viability was measured using the CellTiter-Glo Assay (Promega), a luciferase-based reagent that measures cellular ATP levels. The compounds were tested at different concentrations to determine IC50 values. […] Compounds that were active in the primary assay but toxic below 30 μM at 24 hours (but nontoxic at 3 hours) were still considered. […] Data were normalized against DMSO and the positive control (1 μM BLT-1) in Genedata Assay Analyzer.
All available dry powder samples of the remaining, non-quenching compounds were procured from commercial sources and purities were determined. The compounds obtained were then retested in the primary assay and in the cytotoxicity assays. We wanted to rule out any compounds that were cytotoxic, especially in the 3-hour time span of the primary DiI-HDL uptake assay. Therefore, compounds were tested in ldlA[mSR-BI]cells for cytotoxicity at 3 hours and 24 hours using the CellTiter-Glo assay (Promega) that measures cellular ATP as a marker of cell viability. […] Compounds were screened for inhibition of endocytosis using labeled transferrin, which is known to bind the transferrin receptor, enter cells by clathrin-mediated endocytosis, and move to endosomes before being recycled to the cell surface. The BLT compounds have also been tested for potential interference with endocytosis and show no such activity.

Series [3] addresses T1, murine SR-BI. Description: DiI-HDL uptake assay with washout. Type of series: cell-based. How it is done:
DiI-HDL Uptake Assay with Washout (SA 5: AID No. 588831)
This is a modification of the primary assay where cells are treated with compound prior to the addition of DiI-HDL but no compound is present during the DiI-HDL treatment period. ldlA[mSR-BI]cells were plated into 384-well plates at 30 μl per well and incubated overnight. Cells were treated with compound for 3 hours, then media were removed and the cells were washed with PBS before fresh lipoprotein-free media (Ham's F12/0.5% fatty acid-free Bovine Serum Albumin [BSA]/25 mM HEPES pH 7.4) was added with […] DiI-HDL. Cells took up the DiI via SR-BI over 3 hours in the absence of compound. After significant uptake of the DiI, the cells became fluorescent. The level of fluorescence correlates with the amount of DiI uptake and can be measured with a standard plate reader. The uptake of lipid (represented by DiI) was inhibited by the compound BLT-1.

The term IC50 denotes the midpoint of a concentration-inhibition curve.

Entries after “also recorded” stand apart in the source; their conditions may differ. Where two headings read alike, the source gives them in different places.

On to `CCCCCCC1CCCC1=NNC(N)=S` (stereo not drawn) [BLT-1, reference compound], for which, in series [1] (1 μM, positive control in primary HTS), the “reduction in signal (DiI-HDL uptake)” value is above 2.2 fold. Besides, the “cytotoxicity” value in series [2] is on record as “toxic to cells”. The “reversibility of inhibition” value in series [3] is on record as “nonreversible covalent modifier of SR-BI”.
Regarding `COCC(=O)N1CCc2cc(-c3csc(NC(=O)c4cc(OC)cc(OC)c4)n3)ccc21` [Compound 137, 3,5-Dimethoxy-N-(4-(1-(2-methoxyacetyl)indolin-5-yl)thiazol-2-yl)benzamide], in series [1], the “higher potency than ITX-5061” value is “approximately 15 fold”. Further, in series [1], the “improved potency over the original hit” value was above 20 fold. In addition, the selectivity result in series [1] is on record as “greater than 1000”. Besides, the IC50 in series [1] (read-out: IC50, DiI-HDL uptake) is 2 nM; in series [3] (cells pre-treated, washed with PBS, DiI-HDL without compound, read-out: IC50 after washout), 300 nM. Moreover, the “cytotoxicity” value in series [2] (listed as ML278) is recorded as “no cytotoxicity at 24 hours; also recorded: shows no cytotoxicity”. In addition, the “inhibition after washout at the IC50 concentration” value in series [3] is “no inhibition”. Moreover, the results for the “reversibility of inhibition” value in series [3] (listed as ML278) and in series [3] (listed as Probe 278) were “reversible inhibitor of HDL uptake” and “reversible inhibitor”, respectively.

Values taken from US9951055B2, “Thiazole-based inhibitors of scavenger receptor BI” (THE BROAD INSTITUTE, INC., priority 2012, dated 2018).
